Source: PubChem BioAssay AID785 (University of Pittsburgh Molecular Library Screening Center, 2007)

What follows are molecules tested against Serine/threonine-protein kinase PLK1 (Homo sapiens) (UniProt P53350) (assay: PLK1 kinase inhibitor potency, dose response, biochemical, TR-FRET, IC50 (AID 785)). Settings: recombinant human Plk1, fluorescence polarization phosphopeptide binding, 3 h.
Chain of Serine/threonine-protein kinase PLK1 (Homo sapiens) (P53350 whole entry, looked up): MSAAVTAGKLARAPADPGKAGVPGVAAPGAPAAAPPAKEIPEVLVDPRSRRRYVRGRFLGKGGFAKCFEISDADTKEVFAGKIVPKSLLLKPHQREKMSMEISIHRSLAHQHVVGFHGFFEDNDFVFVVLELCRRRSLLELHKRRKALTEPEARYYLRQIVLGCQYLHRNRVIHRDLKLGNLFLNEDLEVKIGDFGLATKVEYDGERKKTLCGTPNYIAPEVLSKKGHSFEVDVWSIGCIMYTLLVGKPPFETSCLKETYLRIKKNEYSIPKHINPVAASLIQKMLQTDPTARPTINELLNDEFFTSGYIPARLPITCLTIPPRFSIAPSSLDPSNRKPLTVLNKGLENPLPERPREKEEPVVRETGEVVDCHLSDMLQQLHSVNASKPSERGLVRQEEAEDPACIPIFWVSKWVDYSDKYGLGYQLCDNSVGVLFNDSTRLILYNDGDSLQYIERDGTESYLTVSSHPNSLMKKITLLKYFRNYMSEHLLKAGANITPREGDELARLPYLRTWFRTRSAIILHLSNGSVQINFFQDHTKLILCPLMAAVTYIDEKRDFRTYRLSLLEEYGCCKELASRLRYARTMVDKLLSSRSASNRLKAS
For `O=C(CSc1n[nH]c(-c2ccc(Cl)cc2Cl)n1)Nc1ccccn1`, the IC50 was 0.534 µM. With `Cc1c(C(=O)OC(C)C)sc2nc[nH]c(=O)c12` the IC50 was 4.01 µM. `CCOc1c(Br)ccc2c1sc1nc[nH]c(=O)c12` gave an IC50 of 2.15 µM. `Nc1[nH]ncc1N=Nc1ccc(Cl)cc1` showed an IC50 of 2.22 µM. In the case of `N#Cc1c(-c2ccc3c(c2)OCO3)csc1N`, the IC50 is reported as 10.7 µM. `O=c1[nH]cnc2cc(-c3ccccc3)sc12` showed an IC50 of 6.2 µM. `Cc1oc2ncnc(N)c2c1C` gave an IC50 of 3.75 µM. Molecule `CCOC(=O)c1sc2nc[nH]c(=O)c2c1C` has an IC50 of 3.09 µM. `c1ccc2c(-c3ccncc3)c[nH]c2c1` showed an IC50 of 4.12 µM. `CC1Cc2nc(SCC(=O)Nc3nccs3)n(C)c(=O)c2S1` (centres undefined) was tested, and the IC50 was 9.72 µM. With `Cc1cccc(Nc2ncnc3nc[nH]c23)c1` the IC50 was 2.23 µM. Work on `NNc1ncnc2c1cnn2-c1ccccc1` yielded an IC50 of 4.18 µM. `Cc1nc2c([nH]1)C1(CCN(Cc3ccccc3)CC1)C(C#N)=C(N)O2` showed an IC50 of 0.823 µM. With `CCc1nc2n[nH]c(N)c2c2c1CSC(C)(C)C2` the IC50 was 5.1 µM. `CC1CCN(c2ncnc3nc[nH]c23)CC1` gave an IC50 of 3.13 µM. For `O=c1[nH]cnc2scc(-c3cccs3)c12`, the IC50 was 4.24 µM. Molecule `Cc1cccc(N=Nc2c(N)n[nH]c2-c2ccc(Cl)cc2)c1` has an IC50 of 18.5 µM. `COc1ccccc1Nc1ncnc2nc[nH]c12` was tested, and the IC50 was 1.01 µM. Work on `O=C(O)c1ccc2c(c1)[C@@H]1C=CC[C@@H]1[C@H](c1ccccn1)N2` yielded an IC50 of 16.9 µM. With `COc1cccc(Nc2ncnc3nc[nH]c23)c1` the IC50 was 2.37 µM. `N#C/C(=N\Nc1c(Cl)cccc1Cl)C(=O)NN` was tested, and the IC50 was 0.814 µM. `O=C(Nc1cccnc1)c1cnn2cccnc12` gave an IC50 of 4.07 µM. `COc1ccc(N2Nc3n[nH]c(N)c3N2)cc1` gave an IC50 of 1.64 µM. Work on `COc1ccc(Cn2c(N)c(C(=O)NCc3ccco3)c3nc4ccccc4nc32)cc1OC` yielded an IC50 of 8.82 µM. `O=c1[nH]cnc2sc(-c3ccccc3)cc12` showed an IC50 of 6.08 µM. In the case of `CCOc1ccc(N2Nc3n[nH]c(N)c3N2)cc1`, the IC50 is reported as 3.4 µM. Work on `COC(=O)c1sc2nc[nH]c(=O)c2c1C` yielded an IC50 of 1.44 µM. With `Nc1ncnc(Nc2ccccc2C(F)(F)F)n1` the IC50 was 4.84 µM. With `Cc1[nH]nc2c1C1(CCN(Cc3ccccc3)CC1)C(C#N)=C(N)O2` the IC50 was 1.4 µM. `COc1cc(/C=C(\C#N)c2[nH]nc(N)c2C#N)cc(OC)c1O` gave an IC50 of 1.86 µM. `Cc1cc(C(C#N)c2cccc(Cl)c2)n2ncnc2n1` (centres undefined) showed an IC50 of 5.98 µM. `CCOC(=O)c1c(-c2ccncc2)csc1N` was tested, and the IC50 was 7.01 µM. In the case of `C=CCNc1nc(N)c(C(=O)c2ccc3c(c2)OCO3)s1`, the IC50 is reported as 3.85 µM. For `Cc1ncc([N+](=O)[O-])n1CCOC(=O)Nc1ccc(Cl)c(Cl)c1`, the IC50 was 0.775 µM. `COC(=O)c1c(-c2ccc(Br)cc2)noc1N` showed an IC50 of 7.93 µM. Work on `Nc1[nH]ncc1C(=O)Nc1cccc(C(F)(F)F)c1` yielded an IC50 of 0.888 µM. `NC(=O)c1ccc(C(F)(F)F)n(Cc2cccc(Cl)c2)c1=O` gave an IC50 of 22.8 µM. For `Nc1nc2ccc([N+](=O)[O-])c(N)c2s1`, the IC50 was 0.235 µM. Work on `Nc1ncnc(Nc2cccc(C(F)(F)F)c2)n1` yielded an IC50 of 0.469 µM.
